The record followed here is PubChem BioAssay AID489024 (Sanford-Burnham Center for Chemical Genomics, 2010).

pEC50: −log10 of the molar value. The source made the active and inactive calls.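 How the source made its calls: active means compounds whose mean EC50, the dose giving half the maximal reporter activation, is at or below a set limit; inactive means the rest.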

As usually defined, the pEC50 is −log10 of the EC50, conventionally taken in molar units. For orientation: EC50 means the concentration needed to bring the measured effect to its halfway point.

The experiment has as its target CHO-CHOP luciferase reporter, UPR activation, luminescence. The experiment can be described thus: CHOP reporter induction, apoptotic UPR branch – CHO-CHOP cells, luciferase luminescence, confirmation (AID 489024).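 Further: compounds added alone to reporter cells with no tunicamycin stress co-treatment.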
For `CCSC1(SCC)N=C(N)C2(C#N)C(c3ccc(OC)c(OC)c3OC)C12C#N` (stereo not given), the pEC50 was 4.83. The same measure, in the same setting: under `O=c1nc(Nc2cccc(Cl)c2)oc2cc(Cl)oc(=O)c12` stands 4.94; under `COC(=O)C1=C(C)N(c2ccc(C)c(C)c2)/C(=C/c2ccco2)C1=O`, 5.07; under `Oc1c(CN2CCCCC2)cc(Br)c2cccnc12`, 4.97. As for `COc1ccc(-c2nc(-c3ccccc3)nc(Cl)c2C#N)cc1`, the pEC50 was 4.87.

On to `CCOC(=O)c1cnc(Nc2nc3ccccc3o2)nc1CSC(=S)N(CC)CC`, for which the pEC50 was 6.04. Turning to `COc1ccc(N=c2oc3c(OC)cccc3cc2C(=O)NCc2ccco2)cc1OC`, the EC50 was > 80 µM (inactive). In the case of `C/C(CCC12CC3CC(CC(C3)C1)C2)=N\NC(N)=S`, the pEC50 was 4.78. On the same count and under the same terms, with `COc1ccc(-c2cc3ccccc3oc2=O)cc1NC(=S)NC(=O)c1ccc2c(c1)OCCO2` the figure was 4.83. Turning to `CCn1cc(C(=O)NC(=S)Nc2sc3c(c2C(=O)OC)CCCCCC3)cn1`, the EC50 result is “inactive”. Take `CCOc1ccc2c(c1)C(=NNC(=O)c1ccncc1)c1cc(OCC)ccc1-2`: the pEC50 is 5.06. For the compound `COc1ccc2c(c1OC)C(=O)OC2Nc1nc(-c2ccccc2)cs1` (stereo not given), the EC50 is > 80 µM (inactive). Consider `CCOC(=O)c1cc(-c2ccc(/C=C3/C(=O)N(c4ccc(C(=O)O)cc4)N=C3C)o2)ccc1Cl`, for which the pEC50 is 4.97. Same read-out and setting: with `CCOC(=O)N1CCN(Cc2ccc(O)c3ncccc23)CC1` the figure was 4.79; with `Cc1ccc(C)c(N=Cc2c(O)c3ccccc3oc2=O)c1`, 5.20. In the case of `CCc1cccc(CC)c1NC(=O)/C(C#N)=C/c1ccccc1C(F)(F)F`, the EC50 is > 80 µM (inactive).

For `COC(=O)c1ccc(C(=O)OC)c(NC(=O)CSc2cccc[n+]2[O-])c1`, the EC50 entry was “inactive”.

With `O=C(Cn1ncc(Cl)c(Cl)c1=O)c1ccc2c(c1)OCCO2`, the negative logarithm of the EC50 (pEC50) is 4.87. Turning to `Cc1noc2ncnc(Sc3ccc(Cl)cc3)c12`, the negative logarithm of the EC50 (pEC50) is 5.15. Same read-out and setting: with `COc1ccc(N=C2S/C(=C\c3ccc(N4CCOCC4)o3)C(=O)N2CCc2c[nH]c3ccccc23)cc1` the figure was 4.74; with `O=[N+]([O-])/C=C\c1ccc(N2CCOCC2)cc1`, 4.76. Still for that read-out and setting: with `C=C1C(=O)C=C[C@]2(C)C[C@@H]3OC(=O)[C@](C)(O)[C@H]3C[C@@H]12` the figure was 4.90. On to `N#CC(C#N)=C1C=CC=CN1/C(=C\c1ccccc1)C(=O)c1cccs1`, for which the EC50 was > 80 µM (inactive). On to `Cc1ccc(NC(=O)c2nc(S(=O)(=O)Cc3ccccc3C)ncc2Cl)cc1C`, for which the pEC50 is 5.07. On to `CCOC(=O)/C(=C\c1cccc(O)c1)c1nc2sc(C)c(C)c2c(=O)[nH]1`, for which the pEC50 was 4.89.

Take `CCC(=O)Nc1ccc(C(=O)Cn2ncc(Cl)c(Cl)c2=O)cc1`: the negative-log EC50 (pEC50) was 4.86.

`COc1ccc(CC2=CC(=O)c3ccccc3C2=O)cc1`: the pEC50 was 4.91. In the case of `C[C@@H]1CN([C@H](C)CO)C(=O)c2cc(NC(=O)Nc3ccc(C(F)(F)F)cc3)ccc2O[C@H]1CN(C)Cc1ccc(Cl)c(Cl)c1`, the EC50 is > 80 µM (inactive). For the compound `Cc1ccc(-c2cc(-c3ccc(C)cc3)[n+](-c3ccccc3)c(-c3ccc(C)cc3)c2)cc1`, the pEC50 is 5.42. Regarding `O=C1C(Cl)=C(NC(=O)c2ccccc2)C(=O)C(Cl)=C1NC(=O)c1ccccc1`, the EC50 was > 80 µM (inactive). In the case of `FC(F)(F)c1nnc(-c2ccccc2)nc1Sc1ccccc1`, the pEC50 was 5.09.

`COc1ccc(/C=C\c2nc(=O)c3ccccc3o2)cc1`: the pEC50 is 5.07. As for `Oc1cc(-c2ccncc2)cc2cccnc12`, the EC50 is > 80 µM (inactive). On to `Oc1c(N=Nc2ccccn2)ccc2ccccc12`, for which the pEC50 was 5.19. Still for that read-out and setting: under `CC(C)C(=O)N1CCN(c2ccc(NC(=O)c3ccc([N+](=O)[O-])o3)cc2)CC1` stands 5.79; under `CSC(=S)N/N=C(\C)c1ccccc1`, 4.91. For `CC1(C)CC(=O)C2=C(C1)Oc1nc3ccccc3cc1C2C(C#N)C#N` (stereo not given), the EC50 was > 80 µM (inactive). With `FC(F)(F)c1nnc2c(Sc3ccc(Cl)cc3)nc3ccccc3n12`, the pEC50 was 5.39.

Take `COc1ccccc1NC(=O)c1cnc(SCC(=O)NCC2CCCO2)n(C)c1=O` (stereo not given): the pEC50 is 4.84. With `CCOC(=O)c1c(C)oc2c1c(C(c1cccnc1)N1CCOCC1)c(O)c1ccccc12` (stereo not given), the pEC50 was 4.77. Still for that read-out and setting: with `CCOc1ccccc1N=Cc1c(O)c2ccccc2oc1=O` the figure was 5.10; with `COc1ccc(/C=C2\CN(Cc3ccccc3)C/C(=C\c3ccc(OC)c(O)c3)C2=O)cc1O`, 5.56. As to `CS(=O)(=O)Oc1ccc2c(c1)O/C(=C\C=C\c1ccccc1)C2=O`, the EC50 entry was “inactive”. For `O=C(/C=C/Sc1ccc(C(F)(F)F)cn1)c1ccccc1`, the pEC50 is 5.11.

Turning to `CN1CCN(Cc2cc(COCc3ccccc3)c3cccnc3c2O)CC1`, the pEC50 is 4.89. `O=C(N/N=C/c1ccccn1)c1sc2ccccc2c1Cl`: the pEC50 was 5.14. On the same count and under the same terms, with `CCOc1cc(C=C(C(=O)OC)C(=O)OC)ccc1OCc1ccc([N+](=O)[O-])cc1` the figure was 5.17. As for `Nc1c(C(=O)Nc2ccc(S(=O)(=O)N3CCCC3)cc2)sc2nc3ccc(OC(F)(F)F)cc3cc12`, the EC50 is > 80 µM (inactive).

Consider `Cc1cc(C(=O)Cn2ncc(Cl)c(Cl)c2=O)c(C)n1CC(F)(F)F`, for which the pEC50 was 5.38. Same read-out and setting: under `Oc1c(C(Nc2ccccn2)c2ccccn2)ccc2cccnc12` (stereo not given) stands 4.91; under `CCOc1ccc(N2C(=O)CC(N(O)c3ccccc3)C2=O)cc1` (stereo not given), 5.02.

With `COc1ccc(/C=C/C(=O)Oc2ccc(C)cc2)cc1`, the EC50 result was “inactive”. With `O=C(Nc1ccc(O)c2c(=O)cc(-c3cccc(Cl)c3)oc12)c1ccccc1Cl`, the EC50 entry was “inactive”. Consider `c1ccc(-c2nc(N3CCCCCC3)c3ccccc3n2)nc1`, for which the EC50 entry is “inactive”.

Take `O=C(N/N=C/c1ccccn1)c1cc(-c2ccc(Cl)cc2)nc2ccccc12`: the pEC50 is 5.60.

Regarding `COc1ccc(NC(=O)c2sc3nc(N4CCOCC4)c4c(c3c2N)CC(C)(C)OC4)c(OC)c1`, the EC50 is > 80 µM (inactive). Consider `COc1cc(C(Nc2ccccn2)c2ccc3ccc(C)nc3c2O)cc(OC)c1O` (stereo not given), for which the pEC50 is 5.17.

In the case of `CCN1CSC(=S)N(Cc2ccccc2)C1`, the pEC50 is 5.07. Turning to `COc1ccc(C2OC34CCCCC3C(C#N)(C#N)C2(C#N)C(=N)O4)cc1` (stereo not given), the EC50 was > 80 µM (inactive). Still for that read-out and setting: with `O=C(CN1CCN(c2ccccc2F)CC1)c1ccc(O)c(O)c1` the entry was “inactive”; with `O=C1NC(=S)NC(=O)C1=Cc1ccc(Br)s1`, > 80 µM (inactive). `CCc1ccc2c(c1)C1(NN=C(c3ccccc3)S1)C(=O)N2` (stereo not given): the pEC50 is 5.47. Same read-out and setting: with `O=[N+]([O-])c1cc(-c2ncccn2)c([N+](=O)[O-])s1` the figure was 5.12; with `CN1C(=O)NC(=O)/C(=C\C=C\c2ccccc2[N+](=O)[O-])C1=O`, 4.98.

With `Cc1nn(Cc2c(Cl)cccc2Cl)c(C)c1NC(=O)c1cn(-c2ccccc2)nc1-c1ccccc1`, the pEC50 is 5.13.

On to `Oc1c(Cl)cc(CN2CCOCC2)c2cccnc12`, for which the pEC50 is 5.23. With `Cc1ccc(C(=O)C(C(=O)/C=C/c2ccccc2)=C2SCCCS2)cc1`, the negative-log EC50 (pEC50) is 4.84. In the case of `C/C(=C\c1ccc(N(C)C)cc1)[N+](=O)[O-]`, the pEC50 was 5.01. As to `CCOC(=O)C(CC)(CC)C(=O)/C=C/c1cccc(Br)c1`, the pEC50 is 4.93.

On to `O=C(Nc1ccc(N2CCOCC2)cc1)c1ccc([N+](=O)[O-])o1`, for which the negative-log EC50 (pEC50) was 5.33. Still for that read-out and setting: under `N#C/C(=C\c1ccc([N+](=O)[O-])o1)C(=O)Nc1ccc(F)cc1` stands 4.77. As for `CCCCC1CCC(C(=O)N(CCCC)c2c(N)n(CCCC)c(=O)[nH]c2=O)CC1` (stereo not given), the EC50 was > 80 µM (inactive). Turning to `O=C(NC1CCCC1)C(c1ccc(F)cc1)N(Cc1ccc(F)cc1)C(=O)CCl` (stereo not given), the pEC50 was 5.03. Take `Cc1c(C(=O)c2no[n+]([O-])c2C(=O)c2cnn(C)c2C)cnn1C`: the EC50 was > 80 µM (inactive). Consider `O=S(=O)(Nc1cccc2cccnc12)c1ccc(S(=O)(=O)N2CCCC2)cc1`, for which the pEC50 is 4.86. The same measure, in the same setting: with `COc1ccc(C2=CC(=O)N(Nc3ccccc3)C2=O)cc1` the figure was 4.87; with `Cc1cccnc1Nc1nc(-c2ccccn2)cs1`, 6.19. Same read-out and setting: under `CC(C)N1CSC(=S)N(Cc2ccccc2)C1` stands 4.97. Take `Cc1nc([N+](=O)[O-])c(Br)n1CC(=O)c1ccc(Br)cc1`: the EC50 is > 80 µM (inactive). On the same count and under the same terms, under `Cc1ccc(C(=O)NC(C#N)=C(Cl)Cl)cc1` stands > 80 µM (inactive); under `O=C1NN(c2cccc(Br)c2)C(=O)/C1=C/c1cccs1`, “inactive”. Turning to `O=C(/C(=C\c1ccccc1)c1nc2ccccc2[nH]1)c1ccc(Cl)cc1`, the pEC50 was 5.07. On the same count and under the same terms, with `COc1ccc2c(c1)CCc1c(C(=O)Nc3cc(C)n(Cc4ccc(Cl)cc4)n3)noc1-2` the figure was 4.85.

On to `CC1(C)CC(=O)C(=Cc2cn(-c3ccccc3)nc2-c2ccccc2)C(=O)C1`, for which the EC50 entry is “inactive”.

As for `COc1ccc(C(=O)NCC(=O)N/N=C/c2ccc([N+](=O)[O-])o2)cc1OC`, the EC50 is > 80 µM (inactive). In the case of `COc1ccc(N=Nc2ccc(O)c3ncccc23)cc1`, the pEC50 was 5.10.

Take `COc1ccc(NS(=O)(=O)c2ccc3ccccc3c2)c2ncccc12`: the pEC50 is 5.03. For the compound `O=C(Oc1ccccc1/C=C\C(=O)c1cc2ccccc2o1)c1ccccc1`, the pEC50 is 4.89. The same measure, in the same setting: under `C/C(=N\NC(=O)C(c1ccccc1)c1ccccc1)c1ccccn1` stands 4.80; under `O=[N+]([O-])c1ccc(N/N=C/c2cccc(O)c2O)c(S(=O)(=O)N2CCOCC2)c1`, 5.19. On to `Cc1ccc(CS(=O)(=O)c2ncc(Cl)c(C(=O)Nc3nnc(C(C)C)s3)n2)cc1`, for which the EC50 was > 80 µM (inactive).

As for `COc1ccc2[nH]cc(C(=O)CCl)c2c1`, the EC50 is > 80 µM (inactive). In the case of `Cc1coc2c1C(=O)C(=O)c1c-2ccc2c(C)cccc12`, the EC50 was > 80 µM (inactive).

For `COc1cc(/C=C2\COC/C(=C\c3ccc(O)c(OC)c3)C2=O)ccc1O`, the pEC50 was 5.20. Still for that read-out and setting: with `O=C(Cn1cc(/C=C\[N+](=O)[O-])c2ccccc21)Nc1ccccc1` the figure was 5.12.
